Series [1] deals with T1, His-PPARγ LBD (Homo sapiens, UniProt P37231).
T1 sequence (P37231 203-477 isoform P37231-2): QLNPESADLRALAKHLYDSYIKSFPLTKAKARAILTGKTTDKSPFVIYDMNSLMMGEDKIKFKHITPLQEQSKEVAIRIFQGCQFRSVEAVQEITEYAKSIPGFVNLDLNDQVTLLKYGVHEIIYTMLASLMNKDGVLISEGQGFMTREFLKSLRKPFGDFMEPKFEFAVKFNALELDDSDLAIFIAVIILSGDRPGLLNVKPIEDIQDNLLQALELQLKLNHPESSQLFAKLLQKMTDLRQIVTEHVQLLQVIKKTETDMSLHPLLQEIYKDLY
The series is classed as biochemical. As to conditions: TRAP220 coactivator peptide.

The conditions of series [2]: limited use of MRL20 concentrations to 30 μM in assays; cited from earlier work.
Series [3] has as its target T2, full-length PPARγ (Homo sapiens, UniProt P37231).
T2 sequence (P37231 1-505): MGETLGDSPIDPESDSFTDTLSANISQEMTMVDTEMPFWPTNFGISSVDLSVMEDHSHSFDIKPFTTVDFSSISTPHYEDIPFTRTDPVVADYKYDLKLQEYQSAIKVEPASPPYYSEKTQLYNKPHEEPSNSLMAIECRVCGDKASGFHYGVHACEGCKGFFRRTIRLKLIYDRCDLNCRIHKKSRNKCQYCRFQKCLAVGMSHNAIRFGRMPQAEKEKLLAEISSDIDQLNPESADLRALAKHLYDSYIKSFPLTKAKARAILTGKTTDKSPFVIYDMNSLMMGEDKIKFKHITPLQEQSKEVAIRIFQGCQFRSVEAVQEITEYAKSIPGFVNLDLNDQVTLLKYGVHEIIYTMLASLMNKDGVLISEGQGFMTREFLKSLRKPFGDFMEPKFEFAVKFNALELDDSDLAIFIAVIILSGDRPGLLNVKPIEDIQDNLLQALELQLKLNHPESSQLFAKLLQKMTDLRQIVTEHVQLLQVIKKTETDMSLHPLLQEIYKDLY
In words: Full-length PPARγ/5xPPRE-luciferase reporter assay in HEK293T cells. Particulars: covalent analog ± 5 μM MRL20. The series is classed as cell-based. In general terms: In a reporter assay the amount or activity of a reporter protein is the signal.

The structures appear in SMILES notation.

The values below come from PMC5652320 (ACS chemical biology, 2017).

Turning to `O=C(Nc1ccccc1)c1cc([N+](=O)[O-])ccc1Cl` [GW9662], the “TR-FRET response to rosiglitazone with covalent antagonist-bound PPARγ LBD” value in series [1] (rosiglitazone titration, endpoint 300 μM) was “lower but not blocked”.

Consider `COc1ccc(C(=O)n2c(C)c(Cc3ccccc3O[C@@H](C)C(=O)O)c3cc(OC(F)(F)F)ccc32)cc1` [MRL20], for which the Solubility entry in series [2] is “solubility issues”.

For `COc1ccc2nccc(NC(=O)c3cc([N+](=O)[O-])ccc3Cl)c2c1` [compound 22], in series [1] (DHA dose response and 30 μM endpoint), the “Effect of covalent antagonist on binding of DHA to PPARγ” value was “reduced binding of DHA to PPARγ better than GW9662 and T0070907”. Further, the “Inhibition of allosteric activation of full-length PPARγ by MRL20” value in series [3] is “inhibition of allosteric PPARγ activation”.
